Where two headings read alike, the source gives them in different places.
Tests used:
P. falciparum D6 = assay: microbe, parasite or virus in culture; assay type: cell-based, Plasmodium falciparum; settings: for EC50: Plasmodium falciparum, D6, read-out: P. falciparum D6 pEC50 (converted); for P. falciparum D6 pEC50: D6 strain
L. major promastigotes = assay: microbe, parasite or virus in culture; assay type: cell-based, Leishmania major; settings: for EC50: Leishmania major, read-out: Leishmania Promast pEC50 (converted); for Leishmania Promast pEC50: L. major promastigotes
3T3 = 3T3 host cell toxicity; assay type: cell-based
P. falciparum W2 = assay: microbe, parasite or virus in culture; assay type: cell-based, Plasmodium falciparum; settings: for EC50: Plasmodium falciparum, W2, read-out: P. falciparum W2 pEC50 (converted)
HepG2 cells = assay: HepG2 host cell toxicity assay; assay type: cell-based; settings: HepG2, purchased inhibitors, Table 3
T. brucei cells = assay: microbe, parasite or virus in culture; assay type: cell-based, Trypanosoma brucei; settings: for EC50: Trypanosoma brucei, read-out: T. brucei pEC50 (within 46%) (converted); for T. brucei pEC50 (within 46%): purchased inhibitors, Table 3
[1] = system: L. major intracellular amastigotes; assay: microbe, parasite or virus in culture; assay type: cell-based, Leishmania major; settings: for EC50: Leishmania major, read-out: Leishmania Amast pEC50 (converted); for Leishmania Amast pEC50: L. major intracellular amastigotes
[2] = system: T. cruzi intracellular amastigotes (Tulahuen strain); assay: microbe, parasite or virus in culture; assay type: cell-based, Trypanosoma cruzi; settings: for EC50: Trypanosoma cruzi, TULAHUEN, read-out: T. cruzi pEC50 (μM) (within 21%) (converted); for T. cruzi pEC50 (within 21%): intracellular amastigotes, Tulahuen strain
P. falciparum C235 = assay: microbe, parasite or virus in culture; assay type: cell-based, Plasmodium falciparum; settings: for EC50: Plasmodium falciparum, read-out: P. falciparum C235 pEC50 (converted)
[3] = HAT patients; cited from earlier work

| Compound | EC50 (P. falciparum D6) [µM] | EC50 (L. major promastigotes) [µM] | EC50 (P. falciparum W2) [µM] | EC50 [1] [µM] | EC50 (P. falciparum C235) [µM] | P. falciparum D6 pEC50 (P. falciparum D6) | Leishmania Promast pEC50 (L. major promastigotes) | P. falciparum W2 pEC50 (P. falciparum W2) | T. brucei pEC50 (within 46%) (T. brucei cells) | Leishmania Amast pEC50 [1] | T. cruzi pEC50 (within 21%) [2] | P. falciparum C235 pEC50 (P. falciparum C235) | host cell tox 3T3 pTC50 (3T3) | host cell tox HepG2 pTC50 (HepG2 cells) | EC50 (T. brucei cells) [µM] | EC50 [2] [µM] | T. brucei proliferation activity (in words; active = pEC50 ≥ 6) (T. brucei cells) | mortality rate of melarsoprol treatment [3] [%] | T. brucei proliferation activity (in words; active = pEC50 ≥ 6) (T. brucei cells; listed as NVP-TAE684) |
| --- | --- | --- | --- | --- | --- | --- | --- | --- | --- | --- | --- | --- | --- | --- | --- | --- | --- | --- | --- |
| COc1ccc2c(c1)[nH]c1c(C)nccc12 [NEU-1049, harmine] | > 20 | 1.26 | > 20 | 1.26 | > 20 |  |  |  |  |  |  |  | <4 | <5.1 | > 3.16 | 15.8 |  |  |  |
| CC[C@H](CO)Nc1nc(NCc2ccccc2)c2ncn(C(C)C)c2n1 [NEU-977, roscovitine] |  |  |  |  |  |  |  |  |  |  |  |  | <4 | 4.5 |  |  |  |  |  |
| CCc1cc2c(cc1N1CCC(N3CCOCC3)CC1)C(C)(C)c1[nH]c3cc(C#N)ccc3c1C2=O [NEU-974, CH542480210] | 3.98 | 0.126 | > 20 | > 15.8 | > 20 |  |  |  |  |  |  |  | <4 | <4.4 | > 3.16 | > 50.1 |  |  |  |
| Nc1nc(Nc2ccc(S(N)(=O)=O)cc2)nn1C(=O)c1c(F)cccc1F [NEU-971, JNJ-77066218] | 2 | > 25.1 | 1 | > 15.8 | 1.26 |  |  |  |  |  |  |  | <4 | 5.2 | 0.316 | > 50.1 |  |  |  |
| O=C1NC(=O)C(c2ccccc2[N+](=O)[O-])=C1Nc1ccc(O)c(Cl)c1 [NEU-986, SB 41528622] |  |  |  |  |  |  |  |  |  |  |  |  | 4.2 | <4.4 |  |  |  |  |  |
| C[C@@H](Oc1cc(-c2cnn(C3CCNCC3)c2)cnc1N)c1c(Cl)ccc(F)c1Cl [NEU-838, crizotinib] | 0.794 | 0.631 | 0.0398 | 1.58 | 0.1 |  |  |  |  |  |  |  | 4.8 | 5.4 | 0.398 | 7.94 | potent T. brucei proliferation inhibitors |  |  |
| Nc1ncnc2c1c(-c1cccc(OCc3ccccc3)c1)cn2[C@H]1C[C@@H](CN2CCC2)C1 [NEU-967, NVP-AEW5414] | 1.26 | 0.1 | 1 | 3.98 | 1.26 |  |  |  |  |  |  |  | 4.8 | 5.5 | 2 | 3.98 |  |  |  |
| Nc1nc(N)nc(Nc2ccc([As]3SCC(CO)S3)cc2)n1 (centres unmarked) [melarsoprol] |  |  |  |  |  |  |  |  |  |  |  |  |  |  |  |  |  | ≥ 5 |  |
| COc1cc(N2CCC(N3CCN(C)CC3)CC2)ccc1Nc1ncc(Cl)c(Nc2ccccc2S(=O)(=O)C(C)C)n1 [NEU-844, TAE684] | 0.501 | 0.316 | 0.398 | 1.26 | 0.501 |  |  |  |  |  |  |  | 4.6 | 5.3 | 0.1 | 5.01 |  |  | potent T. brucei proliferation inhibitors |
| Nc1nc(NCCNc2ncc(-c3ncc[nH]3)c(-c3ccc(Cl)cc3Cl)n2)ccc1[N+](=O)[O-] [NEU-978, CHIR-9801414] |  |  |  |  |  | <4.7 | 5.2 | <4.7 | <5.5 | <4.8 | < 4.3 | <4.7 | <4 | 4.8 |  |  |  |  |  |
| CCc1cnn2c(NCc3ccc[n+]([O-])c3)cc(N3CCCC[C@H]3CCO)nc12 [NEU-975, dinaciclib] |  |  |  |  |  |  |  |  |  |  |  |  | <4 | <4.4 |  |  |  |  |  |
| CCCCOc1c(C(=O)c2c(F)cc(C)cc2F)c[nH]c2nncc1-2 [NEU-968, BMS-2652465] | 15.8 | 0.251 | 10 | > 15.8 | 12.6 |  |  |  |  |  |  |  | <4 | <4.4 | 0.501 | > 50.1 |  |  |  |
| CNC(=O)c1nn(C)c2c1C(C)(C)Cc1cnc(Nc3ccc(N4CCN(C)CC4)cc3)nc1-2 [NEU-969, PHA-8481256] | 6.31 | 0.316 | 7.94 | 5.01 | 6.31 |  |  |  |  |  |  |  | <4 | 5.0 | 0.0251 | 0.0398 |  |  |  |
| C[C@]1(O)C[C@@H](c2nc(-c3ccc4ccc(-c5ccccc5)nc4c3)c3c(N)nccn32)C1 [NEU-976, linsitinib] | 0.501 | 7.94 |  | > 15.8 | 0.501 |  |  |  |  |  |  |  | <4 | 4.5 | > 3.16 | 10 |  |  |  |
| COc1cc(OC)c(/C=C/S(=O)(=O)Cc2ccc(OC)c(NCC(=O)O)c2)c(OC)c1 [NEU-973, ON-019109] | > 20 | > 25.1 | > 20 | > 15.8 | > 20 |  |  |  |  |  |  |  | <4 | <4.4 | > 3.16 | > 50.1 |  |  |  |
| CCc1cc(Nc2nccc(-c3c(-c4ccc(OC)c(C(=O)Nc5c(F)cccc5F)c4)nc4ccccn34)n2)c(OC)cc1N1CCC(N2CCN(S(C)(=O)=O)CC2)CC1 [NEU-970, GSK1904529A7] |  |  |  |  |  | 6.8 | <4.9 | 7.0 | 5.9 | 5.5 | < 4.3 | 6.9 | <4 | <4.4 |  |  |  |  |  |

Second part, led by results:

| EC50 (P. falciparum D6) [µM] | EC50 (L. major promastigotes) [µM] | EC50 (P. falciparum W2) [µM] | EC50 [1] [µM] | EC50 (P. falciparum C235) [µM] | P. falciparum D6 pEC50 (P. falciparum D6) | Leishmania Promast pEC50 (L. major promastigotes) | P. falciparum W2 pEC50 (P. falciparum W2) | T. brucei pEC50 (within 46%) (T. brucei cells) | Leishmania Amast pEC50 [1] | T. cruzi pEC50 (within 21%) [2] | P. falciparum C235 pEC50 (P. falciparum C235) | Compound | host cell tox 3T3 pTC50 (3T3) | host cell tox HepG2 pTC50 (HepG2 cells) | EC50 (T. brucei cells) [µM] | EC50 [2] [µM] | T. brucei proliferation activity (in words; active = pEC50 ≥ 6) (T. brucei cells) | mortality rate of melarsoprol treatment [3] [%] | T. brucei proliferation activity (in words; active = pEC50 ≥ 6) (T. brucei cells; listed as NVP-TAE684) |
| --- | --- | --- | --- | --- | --- | --- | --- | --- | --- | --- | --- | --- | --- | --- | --- | --- | --- | --- | --- |
| 5.01 | > 25.1 | 3.16 | > 15.8 | 2 |  |  |  |  |  |  |  | CC(C)(C)c1cnc(CSc2cnc(NC(=O)C3CCNCC3)s2)o1 [NEU-984, SNS-03219, 20] | <4 | <4.4 | 0.126 | > 50.1 |  |  |  |
| 2 | 0.398 | 2 | 3.16 | 1.58 |  |  |  |  |  |  |  | CN1CC[C@H](c2c(O)cc(O)c3c(=O)cc(-c4ccccc4Cl)oc23)[C@H](O)C1 [NEU-987, flavopiridol] | < 4 | < 4.4 | 0.158 | 12.6 |  |  |  |
| 0.02 | 3.98 | 0.01 | 7.94 | 0.0126 |  |  |  |  |  |  |  | CC[C@@H]1C(=O)N(C)c2cnc(Nc3ccc(C(=O)NC4CCN(C)CC4)cc3OC)nc2N1C1CCCC1 [NEU-980, BI 253616] | 4.5 | 5.6 | 0.631 | 20 |  |  |  |
| 0.158 | 1.58 | 0.158 | 7.94 | 0.158 |  |  |  |  |  |  |  | CC[C@@H]1C(=O)N(C)c2cnc(Nc3ccc(C(=O)N[C@H]4CC[C@H](N5CCN(CC6CC6)CC5)CC4)cc3OC)nc2N1C(C)C [NEU-979, volasertib] | 4.6 | 5.5 | > 3.16 | 12.6 |  |  |  |
| 1.26 | 0.398 | 1 | 2.51 | 1.26 |  |  |  |  |  |  |  | Cc1ncc(-c2ccnc(Nc3ccc(S(C)(=O)=O)cc3)n2)n1C(C)C [NEU-985, AZD543821] | <4 | 4.9 | 0.0316 | 1.58 |  |  |  |
| 25.1 | 0.316 | 25.1 | > 15.8 | 20 |  |  |  |  |  |  |  | O=c1sn(-c2cccc3ccccc23)c(=O)n1Cc1ccccc1 [NEU-991, tideglusib] | 4.1 | <4.4 | > 3.16 | 20 |  |  |  |
| 2 | > 25.1 | 2.51 | > 15.8 | 2.51 |  |  |  |  |  |  |  | CC(C)CC(=O)Nc1[nH]nc2c1CN(C(=O)C1CCN(C)CC1)C2(C)C [NEU-1007, PHA-79388727] | <4 | <4.4 | 2 | > 50.1 |  |  |  |
| > 20 | 2.51 | > 20 | > 15.8 | > 20 |  |  |  |  |  |  |  | Cn1cc(C2=C(c3ccc(Cl)cc3Cl)C(=O)NC2=O)c2ccccc21 [NEU-990, SB 21676322] | <4 | <4.4 | > 3.16 | > 50.1 |  |  |  |
| 1.26 | > 25.1 | 0.794 | > 15.8 | 0.316 |  |  |  |  |  |  |  | O=C(NC1CCNCC1)c1n[nH]cc1NC(=O)c1c(Cl)cccc1Cl [NEU-982, AT751918] | <4 | <4.4 | 0.316 | 1.26 |  |  |  |
|  |  |  |  |  | 5.0 | 4.7 | 4.7 | 6.0 | <4.8 | < 4.3 | 5.1 | Nc1cccc(-c2cc3c(Oc4cccc(O)c4)ncnc3[nH]2)c1 [NEU-989, TWS11925] | 4.4 | <4.4 |  |  |  |  |  |
